From patent US20200237670A1, “DYE-STABILIZED NANOPARTICLES AND METHODS OF THEIR MANUFACTURE AND THERAPEUTIC USE” (Memorial Sloan Kettering Cancer Center, priority 2015, published 2020)
Blank lines part the entries; values can stand above or below the molecule they belong to.

Assays:
[1] = tested on: endothelial cells; 3T3-GFP / SB2 co-culture; assay: Photodynamic therapy in cell culture (NIR irradiation); type: cell-based; details: 30 min incubation, 1 min xenon lamp, imaged after 24 h
Description: The IR783-SFB nanoparticles were tested for the application of photodynamic therapy. The […] properties of the dyes may provide an added therapeutic benefit of the targeted nanoparticles. Endothelial and cancer cells were incubated with the nanoparticles for 30 min and then washed and exposed to NIR light from a Xenon lamp for 1 min. […] FIG. 8A depicts endothelial cells that were incubated for 30 min with NP and irradiated for 1 min with a xenon lamp (Xcite) using an ICG filter set (Chroma). […] After 24 h, the morphology of the irradiated area was altered and cells detached after washing (upper right).

[2] = tested on: BAEC, bEnd3, SB2, 3T3, BMDM and RAW264 cells; assay: In vitro uptake of IR783-SFB nanoparticles (fluorescence microscopy); type: cell-based; details: 2 h, 30 μg/ml particles or equivalent free dye
Description: Bone marrow derived macrophages (BMDM), RAW264 macrophages, and 3T3 fibroblasts did take up the nanoparticles efficiently. […] FIG. 4B depicts quantitative analysis of fluorescence intensity in the cell lines was conducted using ImageJ v1.40 (NIH, USA). The mean fluorescence intensities are expressed in arbitrary units per square micron. The increased uptake by endothelial cells and cancer cells as opposed to macrophages and fibroblasts is about 4 fold. FIG. 4C depicts confirmation of the differential uptake between cell lines, 3T3 fibroblasts (GFP) were co-cultured with SB2 liver cancer cells (RFP) to confluence and incubated with nanoparticles for 30 min. The cell morphology of the co-culture can be seen in bright light (upper left, DIC) and fluorescence channel (upper right).
The uptake of the sorafenib-IR783 nanoparticles (IR783-SFB) was tested in 6 cell types: endothelial cells (BAEC and bEnd3 cell line), liver HCC cells (SB2 cells, derived from the in vivo model), fibroblasts (3T3), and macrophages (BMDM and RAW264). The cells were incubated for 2 hours with 30 μg/ml and as a control with an equivalent amount of free IR783. The cells were washed and stained with Cell Mask (Life Sciences) for membrane staining and DAPI for nuclear staining. The cells were imaged with a florescence microscope equipped with an Indocyanine Green filter set, as depicted in FIGS. 4A-4B.

[3] = tested on: MYC-driven autochthonous murine hepatic tumor; assay: MYC/β-catenin driven liver tumor model: targeting and biodistribution; type: in vivo, FVB mice; details: near-IR fluorescence of livers 24 h after i.v. injection, sodium salt
Description: Sorafenib-containing nanoparticles were tested in vivo for imaging and treatment of hepatocellular carcinoma in an orthotopic model. FVB mice were transfected by hydrodynamic injection on day 0 with plasmids to C-Myc and beta-catenin to inoculate liver tumors. FIG. 5A depicts mice bearing liver tumors and healthy mice were injected with IR783-SFB (for example, at 20 mg/kg) at day 21 after inoculation. After 24 hours the livers were extracted and imaged using an IVIS Preclinical In Vivo Imaging System (Perkin Elmer) in fluorescence imaging mode. […] The tumors were also imaged by their GFP expression (right panel). […] The GFP expression in the tumors was also imaged (right panel).
Next, the biodistribution of INPs in a MYC-driven murine hepatic tumor model was evaluated. To generate autochthonous liver tumors, Sleeping Beauty transposon vectors encoding c-Myc and mutant β-catenin (coupled to GFP) were hydrodynamically delivered into immunocompetent FVB mice along with a vector encoding Sleeping Beauty transposase as described herein.
Hydrodynamic transfection was performed. […] Tumors were evaluated using fluorescence imaging (IVIS imaging system, Xenogen Corp., Hopkinton, Mass.) and immunohistochemistry (H&E). Tumor volume was measured using a caliper.

[4] = tested on: MYC-driven autochthonous murine hepatic tumor; assay: MYC/β-catenin driven liver tumor model: anti-tumor efficacy; type: in vivo, FVB mice; details: 30 mg/kg sorafenib p.o. or as INP i.v., weekly for three weeks; endpoint about day 60
Description: For example, here 20 FVB mice were administered a hydrodynamic injection on day 0 with plasmids to C-Myc and beta-catenin to initiate liver tumors. The efficacy of IR783-SFB was compared to oral SFB. Treatments started at day 21 after inoculation and were administrated once weekly for 3 weeks.
To test the therapeutic potential of the INPs in vivo, the anti-tumor efficacy of equivalent drug doses in the liver cancer mouse model described above were either delivered intravenously via INPs or the orally administered free drug. Sorafenib or sorafenib INPs were injected weekly over the course of three weeks. […] Furthermore, quantitative measures of liver weight, tumor volume, and GFP emission confirmed virtually complete tumor eradication in INP-treated livers (FIGS. 12D-12F).
Hydrodynamic transfection was performed. Specifically, 10 μg pT3-EF1a-c-myc, 10 μg pT3-EF1a-β-CateninT41A-IRES-GFP and CMV-SB13 Sleeping Beauty transposase (1:5 ratio) were mixed in sterile saline solution. A total volume of plasmid-saline solution mix corresponding to 10% of the body weight was injected into the lateral tail vein of 6- to 8-week old female FVB/N mice (Jackson Laboratory, Me., USA) within 5-7 seconds. […] Tumors were evaluated using fluorescence imaging (IVIS imaging system, Xenogen Corp., Hopkinton, Mass.) and immunohistochemistry (H&E). Tumor volume was measured using a caliper.

[5] = Nanoparticle formation with indocyanine IR783 by nano-precipitation (DLS / visual precipitation)

Structure (SMILES): CC1(C)C(=CC=C2CCCC(C=CC3=[N+](CCCCS(=O)(=O)[O-])c4ccccc4C3(C)C)=C2Cl)N(CCCCS(=O)(=O)[O-])c2ccccc21.[Na+] [IR783, 2-[2-[2-Chloro-3-[2-[1,3-dihydro-3,3-dimethyl-1-(4-sulfobutyl)-2H-indol-2-ylidene]-ethylidene]-1-cyclohexen-1-yl]-ethenyl]-3,3-dimethyl-1-(4-sulfobutyl)-3H-indolium hydroxide, inner salt sodium salt]
- effect on cells after NIR irradiation [1]: no significant effect
- uptake (internalization) in cell lines [2]: does not internalize in the cells
- accumulation in liver tumors ([3]; listed as free indocyanine): did not accumulate in tumors
- accumulation in liver tumors [3]: does not accumulate

Structure (SMILES): CNC(=O)c1cc(Oc2ccc(NC(=O)Nc3ccc(Cl)c(C(F)(F)F)c3)cc2)ccn1 [Sorafenib]
- anti-tumor efficacy in liver tumor model [4]: multiple liver tumors

- formation of nanoparticles with indocyanine [5]: did not
Structure (SMILES): Cc1onc(-c2ccccc2)c1-c1ccc(S(N)(=O)=O)cc1 [Valdecoxib]
